The source of these data is patent publication EP0554004A2, “Cephem compounds and antibacterial agents” (KATAYAMA SEIYAKUSYO CO. Ltd., priority 1992, dated 1993).

Experiment [1] concerns clinically isolated MRSA. Description: Antibacterial potency against clinically isolated MRSA (Test Example 2). Format: cell-based, methicillin-resistant Staphylococcus aureus. The following applies: Staphylococcus aureus, 52 strains of clinically isolated MRSA; for MIC50: concentration inhibiting growth of 50% of the strains (Test Example 2); for MIC90: concentration inhibiting growth of 90% of the strains (Test Example 2). Here is the method:
A test on the antibacterial potency against clinically isolated MRSA was conducted in the following way.
(§1) 52 strains of clinically isolated MRSA were used, and MIC was determined for each of the strains according to the standard method of the Japan Chemotherapical Society as in Test Example 1. The minimum growth inhibitory concentration which inhibited growth of 50% of the strains tested was expressed as MIC50 (µg/ml), and the minimum growth inhibitory concentration which inhibited growth of 90% of the strains was expressed as MIC90 (µg/ml).
In this test, FMOX (flomoxef), IPM/CS (imipenem/cilastatin), CMZ (cefmetazole), MINO (minocycline) and DMPPC (methicillin) were used as control agents.

Experiment [2] relates to clinically isolated MRSA. In words: Antibacterial potency against clinically isolated MRSA (Test Example 4). Type of experiment: cell-based, methicillin-resistant Staphylococcus aureus. Particulars: Staphylococcus aureus, MRSA. Here is the method:
as §1
MIC 50 and MIC 90 were determined for each of the 52 strains of clinically isolated MRSA according to the same method as used in Test Example 2.
VCM (vancomycin) was used as control agent.

Values after ≈ are worked out from the molar mass of the structure shown. Some results are limits rather than exact numbers.

In experiment [1], `COc1cccc(OC)c1C(=O)N[C@@H]1C(=O)N2[C@@H]1SC(C)(C)[C@@H]2C(=O)O` [DMPPC, methicillin, reference compound] showed an MIC50 of 42.5 µg/mL (≈ 112 µM) and an MIC90 above 100 µg/mL.

In experiment [2], `CN[C@H](CC(C)C)C(=O)N[C@H]1C(=O)N[C@@H](CC(N)=O)C(=O)N[C@H]2C(=O)N[C@H]3C(=O)N[C@H](C(=O)N[C@H](C(=O)O)c4cc(O)cc(O)c4-c4cc3ccc4O)[C@H](O)c3ccc(c(Cl)c3)Oc3cc2cc(c3O[C@@H]2O[C@H](CO)[C@@H](O)[C@H](O)[C@H]2O[C@H]2C[C@](C)(N)[C@H](O)[C@H](C)O2)Oc2ccc(cc2Cl)[C@H]1O` [VCM, vancomycin, reference compound] showed an MIC50 of 0.74 µg/mL (≈ 0.511 µM) and an MIC90 of 1.38 µg/mL (≈ 0.952 µM).

For the molecule `CN(C)c1ccc(O)c2c1C[C@H]1C[C@H]3[C@H](N(C)C)C(O)=C(C(N)=O)C(=O)[C@@]3(O)C(O)=C1C2=O` [MINO, minocycline, reference compound], in experiment [1], the MIC50 came to 0.2 µg/mL (≈ 0.437 µM) and the MIC90 amounted to 1.5 µg/mL (≈ 3.28 µM).

On to `CO[C@@]1(NC(=O)CSCC#N)C(=O)N2C(C(=O)O)=C(CSc3nnnn3C)CS[C@@H]21` [CMZ, cefmetazole, reference compound], for which, in experiment [1], the MIC50 stood at 16.8 µg/mL (≈ 35.6 µM) and the MIC90 was determined as 49.8 µg/mL (≈ 106 µM).

Usually MIC50 stands for an inhibitory concentration at the 50% level, which refers to growth in some studies and to a panel of isolates in others. By MIC90 is commonly meant an inhibitory concentration at the 90% level, which refers to growth in some studies and to a panel of isolates in others. Higher therefore signals weaker potency.
